Experimental data from patent publication US20250236616A1, “IMMUNOMODULATING AZALIDES” (Zoetis Services LLC, priority 2021, published 2025).

What was measured:
Assay type in all cases: cell-based
[1] = tested on: TNF-α; experiment: Whole bovine blood assay, LPS-induced TNF-α; settings: fresh whole bovine blood, LPS stimulant; top drug concentration 250 μM
How it was run: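 Fresh heparinized bovine whole blood was preincubated with compound 4 h at 37 °C, then stimulated with LPS (final 1 μg/mL) for 18 h at 37 °C. Plasma TNF-α was quantified by MSD U-Plex chemiluminescent immunoassay, normalized to total protein (BCA), and IC50 taken for LPS-induced TNF-α inhibition.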

[2] = tested on: IL-1β; experiment: Whole bovine blood assay, LPS-induced IL-1β (inhibition / overstimulation); settings: drug concentration giving overstimulation (OS) of LPS-induced IL-1β, top concentration 250 μM
How it was run: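 Fresh heparinized bovine whole blood was preincubated with compound at varying concentrations for 4 h at 37 °C, then stimulated with 1 μg/mL LPS for 18 h. Plasma IL-1β was measured by MSD chemiluminescent immunoassay and normalized to total protein. Values cover inhibition and concentration-dependent overstimulation.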

[3] = tested on: IL-6; experiment: Whole bovine blood assay, LPS-induced IL-6; settings: fresh whole bovine blood, LPS stimulant; top drug concentration 250 μM

Structure (SMILES) | IC50 [1] [µM] | minimal effective concentration [2] [µM] | IC50 [3] [µM]
CC[C@H]1OC(=O)[C@H](C)[C@@H](O[C@H]2C[C@@](C)(OC)[C@](O)(CNc3ccc(OC)cc3)[C@H](C)O2)[C@H](C)[C@@H](O[C@@H]2O[C@H](C)C[C@H](N(C)S(N)(=O)=O)[C@H]2O)[C@](C)(O)C[C@@H](C)CN[C@H](C)[C@@H](O)[C@]1(C)O [Example B-125] | 34 | 16 | 88
CC[C@H]1OC(=O)[C@H](C)[C@@H](O[C@H]2C[C@@](C)(OC)[C@](O)(CN3CCCC3)[C@H](C)O2)[C@H](C)[C@@H](O[C@@H]2O[C@H](C)C[C@H](N(C)S(=O)(=O)c3ccc(Cl)cc3)[C@H]2O)[C@](C)(O)C[C@@H](C)CN[C@H](C)[C@@H](O)[C@]1(C)O [Example C-3] | 5 | 16 | 9
CCCNC[C@]1(O)[C@H](C)O[C@@H](O[C@H]2[C@H](C)[C@@H](O[C@@H]3O[C@H](C)C[C@H](N(C)S(=O)(=O)NC)[C@H]3O)[C@](C)(O)C[C@@H](C)CN[C@H](C)[C@@H](O)[C@](C)(O)[C@@H](CC)OC(=O)[C@@H]2C)C[C@@]1(C)OC [Example B-55] | > 250 | 26 | > 32
CC[C@H]1OC(=O)[C@H](C)[C@@H](O[C@H]2C[C@@](C)(OC)[C@](O)(CN3CCCCC3)[C@H](C)O2)[C@H](C)[C@@H](O[C@@H]2O[C@H](C)C[C@H](N(C)S(=O)(=O)N(CC)CC)[C@H]2O)[C@](C)(O)C[C@@H](C)CN[C@H](C)[C@@H](O)[C@]1(C)O [Example C-35] | 33 | 11 | 23
CC[C@H]1OC(=O)[C@H](C)[C@@H](O)[C@H](C)[C@@H](O[C@@H]2O[C@H](C)C[C@H](N(C)S(=O)(=O)c3ccccc3)[C@H]2Oc2ccc(F)cc2)[C@](C)(O)C[C@@H](C)CN[C@H](C)[C@@H](O)[C@]1(C)O [Example A-23] | 36 | 16 | 22
CCCNC[C@]1(O)[C@H](C)O[C@@H](O[C@H]2[C@H](C)[C@@H](O[C@@H]3O[C@H](C)C[C@H](N(C)S(=O)(=O)NC4CCCCC4)[C@H]3O)[C@](C)(O)C[C@@H](C)CN[C@H](C)[C@@H](O)[C@](C)(O)[C@@H](CC)OC(=O)[C@@H]2C)C[C@@]1(C)OC [Example B-56] | 86 | 16 | 26
CCCNC[C@]1(O)[C@H](C)O[C@@H](O[C@H]2[C@H](C)[C@@H](O[C@@H]3O[C@H](C)C[C@H](N(C)S(=O)(=O)c4nccn4C)[C@H]3Oc3c(C)cccc3F)[C@](C)(O)C[C@@H](C)CN[C@H](C)[C@@H](O)[C@](C)(O)[C@@H](CC)OC(=O)[C@@H]2C)C[C@@]1(C)OC [Example B-110] | 154 | 18 | 75
CC[C@H]1OC(=O)[C@H](C)[C@@H](O[C@H]2C[C@@](C)(OC)[C@](O)(CN3CCN(C)CC3)[C@H](C)O2)[C@H](C)[C@@H](O[C@@H]2O[C@H](C)C[C@H](N(C)S(=O)(=O)c3ccc(Cl)cc3)[C@H]2O)[C@](C)(O)C[C@@H](C)CN[C@H](C)[C@@H](O)[C@]1(C)O [Example C-7] | 66 | 6 | 50
CCCNC[C@]1(O)[C@H](C)O[C@@H](O[C@H]2[C@H](C)[C@@H](O[C@@H]3O[C@H](C)C[C@H](N(C)S(=O)(=O)c4ccc(F)cc4)[C@H]3Oc3ccc(F)cc3)[C@](C)(O)C[C@@H](C)CN[C@H](C)[C@@H](O)[C@](C)(O)[C@@H](CC)OC(=O)[C@@H]2C)C[C@@]1(C)OC [Example B-108] | 5 | 6 | 10
CCCNC[C@]1(O)[C@H](C)O[C@@H](O[C@H]2[C@H](C)[C@@H](O[C@@H]3O[C@H](C)C[C@H](N(C)S(=O)(=O)c4ccc(Cl)cc4)[C@H]3Oc3ccc(F)cc3)[C@](C)(O)C[C@@H](C)CN[C@H](C)[C@@H](O)[C@](C)(O)[C@@H](CC)OC(=O)[C@@H]2C)C[C@@]1(C)OC [Example B-106] | 7 | 3 | 9
CC[C@H]1OC(=O)[C@H](C)[C@@H](O)[C@H](C)[C@@H](O[C@@H]2O[C@H](C)C[C@H](N(C)S(=O)(=O)c3nccn3C)[C@H]2Oc2ccc(F)cc2)[C@](C)(O)C[C@@H](C)CN[C@H](C)[C@@H](O)[C@]1(C)O [Example A-27] | 141 | 100 | 66
CC[C@H]1OC(=O)[C@H](C)[C@@H](O[C@H]2C[C@@](C)(OC)[C@](O)(CN3CCS(=O)(=O)CC3)[C@H](C)O2)[C@H](C)[C@@H](O[C@@H]2O[C@H](C)C[C@H](N(C)S(=O)(=O)Nc3ccc(C(F)(F)F)cc3)[C@H]2O)[C@](C)(O)C[C@@H](C)CN[C@H](C)[C@@H](O)[C@]1(C)O [Example C-13] | > 250 | 6 | > 250
CCCNC[C@]1(O)[C@H](C)O[C@@H](O[C@H]2[C@H](C)[C@@H](O[C@@H]3O[C@H](C)C[C@H](N(C)S(=O)(=O)c4nccn4C)[C@H]3Oc3cccc(CO)c3)[C@](C)(O)C[C@@H](C)CN[C@H](C)[C@@H](O)[C@](C)(O)[C@@H](CC)OC(=O)[C@@H]2C)C[C@@]1(C)OC [Example B-134] | 17 | 40 | 83
CC[C@H]1OC(=O)[C@H](C)[C@@H](O)[C@H](C)[C@@H](O[C@@H]2O[C@H](C)C[C@H](N(C)S(=O)(=O)c3ccc(F)cc3)[C@H]2Oc2ccc(F)cc2)[C@](C)(O)C[C@@H](C)CN[C@H](C)[C@@H](O)[C@]1(C)O [Example A-25] | 75 | 16 | 28
CCCNC[C@]1(O)[C@H](C)O[C@@H](O[C@H]2[C@H](C)[C@@H](O[C@@H]3O[C@H](C)C[C@H](N(C)S(=O)(=O)c4ccccc4)[C@H]3Oc3cccc([S+](C)[O-])c3)[C@](C)(O)C[C@@H](C)CN[C@H](C)[C@@H](O)[C@](C)(O)[C@@H](CC)OC(=O)[C@@H]2C)C[C@@]1(C)OC (stereo partly shown) [Example B-138] | 26 | 40 | 70
CCCNC[C@]1(O)[C@H](C)O[C@@H](O[C@H]2[C@H](C)[C@@H](O[C@@H]3O[C@H](C)C[C@H](N(Cc4ccc(OC)cc4)S(=O)(=O)c4ccc(OC)cc4)[C@H]3O)[C@](C)(O)C[C@@H](C)CN[C@H](C)[C@@H](O)[C@](C)(O)[C@@H](CC)OC(=O)[C@@H]2C)C[C@@]1(C)OC [Example B-147] | 7 | 1 | 5
CCCN([C@H]1C[C@@H](C)O[C@@H](O[C@@H]2[C@@H](C)[C@H](O[C@H]3C[C@@](C)(OC)[C@](O)(CN4CCCCC4)[C@H](C)O3)[C@@H](C)C(=O)O[C@H](CC)[C@@](C)(O)[C@H](O)[C@@H](C)NC[C@H](C)C[C@@]2(C)O)[C@@H]1O)S(=O)(=O)c1ccc(OC)cc1 [Example C-41] | – | >250 | 4
CC[C@H]1OC(=O)[C@H](C)[C@@H](O[C@H]2C[C@@](C)(OC)[C@](O)(CN3CCC3)[C@H](C)O2)[C@H](C)[C@@H](O[C@@H]2O[C@H](C)C[C@H](N(C)S(=O)(=O)c3ccc(Cl)cc3)[C@H]2O)[C@](C)(O)C[C@@H](C)CN[C@H](C)[C@@H](O)[C@]1(C)O [Example C-2] | – | 6 | 13
CC[C@H]1OC(=O)[C@H](C)[C@@H](O[C@H]2C[C@@](C)(OC)[C@](O)(CNCCc3ccncc3)[C@H](C)O2)[C@H](C)[C@@H](O[C@@H]2O[C@H](C)C[C@H](N(C)S(=O)(=O)c3ccc(Cl)cc3)[C@H]2O)[C@](C)(O)C[C@@H](C)CN[C@H](C)[C@@H](O)[C@]1(C)O [Example B-29] | – | 12 | 54
CCCNC[C@]1(O)[C@H](C)O[C@@H](O[C@H]2[C@H](C)[C@@H](O[C@@H]3O[C@H](C)C[C@H](N(C)S(=O)(=O)c4ccccc4)[C@H]3Oc3cccc(CO)c3)[C@](C)(O)C[C@@H](C)CN[C@H](C)[C@@H](O)[C@](C)(O)[C@@H](CC)OC(=O)[C@@H]2C)C[C@@]1(C)OC [Example B-133] | – | 16 | 24
CC[C@H]1OC(=O)[C@H](C)[C@@H](O[C@H]2C[C@@](C)(OC)[C@](O)(CN3CCCCC3)[C@H](C)O2)[C@H](C)[C@@H](O[C@@H]2O[C@H](C)C[C@H](N(C)S(=O)(=O)Nc3ccccc3)[C@H]2O)[C@](C)(O)C[C@@H](C)CN(CC)[C@H](C)[C@@H](O)[C@]1(C)O [Example C-20] | – | 10 | 24
CCCNC[C@]1(O)[C@H](C)O[C@@H](O[C@H]2[C@H](C)[C@@H](O[C@@H]3O[C@H](C)C[C@H](N(C)S(=O)(=O)c4cccnc4Cl)[C@H]3Oc3ccc(OC)cc3)[C@](C)(O)C[C@@H](C)CN[C@H](C)[C@@H](O)[C@](C)(O)[C@@H](CC)OC(=O)[C@@H]2C)C[C@@]1(C)OC [Example B-124] | – | 6 | 4
CCCNC[C@]1(O)[C@H](C)O[C@@H](O[C@H]2[C@H](C)[C@@H](O[C@@H]3O[C@H](C)C[C@H](N(C)S(=O)(=O)c4cnc(Cl)c(Br)c4)[C@H]3Oc3ccc(OC)cc3)[C@](C)(O)C[C@@H](C)CN[C@H](C)[C@@H](O)[C@](C)(O)[C@@H](CC)OC(=O)[C@@H]2C)C[C@@]1(C)OC [Example B-117] | – | 16 | 142
CC[C@H]1OC(=O)[C@H](C)[C@@H](O[C@H]2C[C@@](C)(OC)[C@](O)(Cn3ccnc3)[C@H](C)O2)[C@H](C)[C@@H](O[C@@H]2O[C@H](C)C[C@H](N(C)S(=O)(=O)c3ccc(Cl)cc3)[C@H]2O)[C@](C)(O)C[C@@H](C)CN[C@H](C)[C@@H](O)[C@]1(C)O [Example C-5] | – | 16 | 31
